Measurements: PubChem BioAssay AID602187 (Broad Institute, 2012)
Active and inactive are the calls of the source.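 The calls were made as follows: active = compounds lowering yeast growth whose fitted half-maximal concentration is at most twice the top tested dose; inconclusive = flat partial growth drop between 30 and 70 percent, or poor fit; inactive = the rest.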

Assays:
[1] = yeast fermentative growth inhibition – glucose medium, OD600, dry powder, dose response (AID 602187); conditions: S. cerevisiae growth in glucose medium, OD600, 48 h
[2] = test system: S. cerevisiae growth in glucose medium, OD600, 48 h; test: as above

Oc1c(CN2CCN(c3ccccc3)CC2)cc(Cl)c2cccnc12
activity change, negative = inhibition ([1]; at 23.5 µM (top of the series)): 11.7% (inactive)

O=C(Nc1nc(-c2ccccn2)cs1)c1ccccc1
activity change, negative = inhibition ([1]; at 19.5 µM (top of the series)): -9.7% (inactive)

Oc1c(CN2CCc3ccccc3C2)cc(Cl)c2cccnc12
AC50 [2]: 15.3 µM

Cc1cc(C)n(-c2nc3ccccc3c(=O)n2OCC#N)n1
activity change, negative = inhibition ([1]; at 19.5 µM (top of the series)): -16.8% (inactive)

Cc1ccc(C(=O)Nc2nc(-c3ccccn3)cs2)cc1
AC50 [2]: 6.06 µM

Oc1c(C(c2ccc(Cl)cc2)N2CCCC2)ccc2cccnc12 (centres undefined)
activity change, negative = inhibition ([1]; at 19.5 µM (top of the series)): 7.98% (inactive)

O=C(Nc1nnc(-c2ccc3c(c2)CCCC3)o1)c1ccccc1
activity change, negative = inhibition ([1]; at 19.5 µM (top of the series)): -13.1% (inactive)

Oc1c(C(c2ccccc2Cl)N2CCCCC2)ccc2cccnc12 (centres undefined)
AC50 [2]: 16.3 µM

O=C(Nc1nc(-c2ccccc2)cs1)c1ccc(Br)s1
activity change, negative = inhibition ([1]; at 19.5 µM (top of the series)): 25.4% (inactive)

O=C(Oc1c(Cl)cc(Cl)c2cccnc12)c1ccco1
AC50 [2]: 0.346 µM

O=C(NNC(=S)Nc1ccc(Cl)c(Cl)c1)c1ccccn1
AC50 [2]: 22 µM

O=C(Nc1nc(-c2ccccn2)cs1)c1ccc(Cl)s1
AC50 [2]: 1.75 µM

Cc1ccc(-c2nc3c(Cl)cc(Cl)cc3c(=O)n2O)cc1
AC50 [2]: 2.01 µM

CN1CCN(C(c2ccc(C(F)(F)F)cc2)c2ccc3cccnc3c2O)CC1 (centres undefined)
AC50 [2]: 3.32 µM

CCCC(=O)NC(c1cccs1)c1cc(Cl)c2cccnc2c1O (centres undefined)
AC50 [2]: 5.88 µM

O=C(Nc1nc(-c2ccccn2)cs1)c1ccc(Br)s1
AC50 [2]: 0.737 µM

CCOC(=O)N1C(=O)C2(CCCCC2)N(c2ccc(C)cc2)C1=S
activity change, negative = inhibition ([1]; at 19.5 µM (top of the series)): 13.1% (inactive)

COc1ccc(-c2nnc(NC(=O)c3ccc(S(=O)(=O)N4CCCc5ccccc54)cc3)o2)cc1
activity change, negative = inhibition ([1]; at 19.5 µM (top of the series)): 19.9% (inactive)

O=C(Nc1nc(-c2ccc3c(c2)CCCC3)cs1)c1ccccc1
activity change, negative = inhibition ([1]; at 19.5 µM (top of the series)): 34% (inactive)

C/C(=N\NC(=O)c1cc2ccccc2cc1O)c1ccccn1
activity change, negative = inhibition ([1]; at 19.5 µM (top of the series)): -15% (inactive)

NC(=O)c1cccc(C(=O)Nc2nc(-c3ccc4c(c3)CCCC4)cs2)c1
activity change, negative = inhibition ([1]; at 19.5 µM (top of the series)): 9.9% (inactive)

Cc1ccc(C(=O)Nc2nnc(-c3ccccc3)o2)cc1C
activity change, negative = inhibition ([1]; at 19.5 µM (top of the series)): 28.3% (inactive)

O=C(Nc1nnc(-c2ccc3c(c2)CCCC3)o1)c1ccc(Cl)cc1Cl
activity change, negative = inhibition ([1]; at 19.5 µM (top of the series)): -3.17% (inactive)

C=CCNC(=S)N/N=C(\C)c1ccccn1
AC50 [2]: 6.93 µM
